Assay [1] deals with Staphylococcus aureus. The following applies: chromogenic agent in culture medium. The text has this: (§1) The term “chromogenic agent” is understood to denote a compound which changes color in the presence of a specific strain, in particular under the effect of the enzymatic system of said strain.
Assay [2] has as its system Staphylococcus aureus. In words: Growth inhibition in the culture medium. The class given is cell-based. The following applies: deferoxamine in the culture medium. An excerpt:
The concentration used will preferably be between 0.010 and 0.100 g/l.

For a further assay, the system named is Streptococcus strains. The following applies: chromogenic agent in culture medium; a large number of Streptococcus strains.
Excerpt: as §1

With 5-bromo-6-chloro-3-indoxyl phosphate, the “Staining in the presence of S. aureus” value with Staphylococcus aureus [1] was “mauve staining”.

As to `CC(=O)N(O)CCCCCNC(=O)CCC(=O)N(O)CCCCCNC(=O)CCC(=O)N(O)CCCCCN` [deferoxamine], in the assay on Staphylococcus aureus [2], the “Inhibition of growth of Staphylococcus aureus” value is “without inhibiting”.

Take 5-bromo-4-chloro-3-indoxyl galactoside: in the assay on Staphylococcus aureus [1], the “Staining in the presence of S. aureus” value is “negative”. Regarding 5-bromo-4-chloro-3-indoxyl glucuronide, the “Staining in the presence of S. aureus” value in the assay on Staphylococcus aureus [1] is reported as “negative”. For the molecule 5-bromo-4-chloro-3-indoxyl glucoside, in the assay on Streptococcus strains, the “Staining of Streptococcus strains” value is on record as “stains blue”. Besides, the “Staining in the presence of S. aureus” value in the assay on Staphylococcus aureus [1] is “without staining”.

Source of the values: patent publication US6548268B1, “Chromogenic medium for detecting Staphylococcus aureus” (priority 1999, dated 2003).
